Experimental data: patent US20100120778A1, “QUINOXALINE-BASED LXR MODULATORS” (Wyeth, priority 2008, published 2010)
pIC50: −log10 of the molar value.

Assays:
human LXRβ = target: T1, human LXRβ (Homo sapiens, UniProt P55055); test: Ligand-binding test procedure for human LXRβ (3H T0901317 tracer, flash plates); conditions: biotinylated hLXRβ, tracer 3H T0901317, +4° C. over night
T1 construct: biotin (biotinylated); made in house; host or cells: E. coli
T1 sequence (P55055 1-460): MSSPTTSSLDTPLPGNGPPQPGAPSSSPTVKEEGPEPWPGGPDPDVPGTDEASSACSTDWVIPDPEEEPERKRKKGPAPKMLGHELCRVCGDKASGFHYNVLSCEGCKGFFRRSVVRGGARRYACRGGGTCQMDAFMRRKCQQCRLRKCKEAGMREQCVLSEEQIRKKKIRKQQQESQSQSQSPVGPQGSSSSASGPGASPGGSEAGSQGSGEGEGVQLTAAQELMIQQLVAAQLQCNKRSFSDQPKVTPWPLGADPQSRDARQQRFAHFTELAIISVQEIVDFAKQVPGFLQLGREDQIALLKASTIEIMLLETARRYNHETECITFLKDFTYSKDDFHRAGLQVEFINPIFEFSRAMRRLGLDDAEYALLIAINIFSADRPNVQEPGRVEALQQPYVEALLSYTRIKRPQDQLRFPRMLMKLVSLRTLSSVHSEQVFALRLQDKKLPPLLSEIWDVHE
Method: I. Ligand-Binding Test Procedure for Human LXRβ.
Receptor source: E. coli extracted from cells expressing biotinylated hLXRβ. Extract was made in a similar buffer as above, but with 50 mM TRIS.
Washed streptavidin and coated flash plates with wash buffer. Diluted receptor extract to give Bmax˜4000 cpm and add to the wells. Wrapped the plates in aluminum foil and stored them at +4° C. overnight.
(§1) Made a dilution series in DMSO of the test ligands. Made a 5 nM solution of the radioactive tracer in buffer. Mixed 250 μl diluted tracer with 5 μl of the test ligand from each concentration of the dilution series. Washed the receptor-coated flash plates. Added 200 μl per well of the ligand/radiolabel mixture to the receptor-coated flash plates. Wrapped the plates in aluminum foil and incubate at +4° C. over night.
Aspirated wells, and washed the flashed plates. Sealed the plate.
Measured the remaining radioactivity in the plate.

human LXRα = target: T2, human LXRα (Homo sapiens, UniProt Q13133); test: Ligand-binding test procedure for human LXRα (3H T0901317 tracer, flash plates); conditions: biotinylated hLXRα, tracer 3H T0901317, +4° C. over night
T2 construct: biotin (biotinylated); made in house; host or cells: E. coli
T2 sequence (Q13133 1-447): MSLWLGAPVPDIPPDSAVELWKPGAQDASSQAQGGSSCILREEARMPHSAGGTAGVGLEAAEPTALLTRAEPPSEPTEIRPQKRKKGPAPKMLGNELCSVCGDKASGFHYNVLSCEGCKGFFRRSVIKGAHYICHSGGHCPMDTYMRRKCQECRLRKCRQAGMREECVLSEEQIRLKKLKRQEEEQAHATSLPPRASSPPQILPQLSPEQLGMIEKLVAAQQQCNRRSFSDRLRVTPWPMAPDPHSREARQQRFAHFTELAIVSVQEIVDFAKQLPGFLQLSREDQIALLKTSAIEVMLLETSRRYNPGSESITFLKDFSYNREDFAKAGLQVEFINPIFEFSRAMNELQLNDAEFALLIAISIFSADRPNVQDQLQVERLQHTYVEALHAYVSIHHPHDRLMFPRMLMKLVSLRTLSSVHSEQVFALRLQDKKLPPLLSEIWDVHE
Method: II. Ligand-Binding Test Procedure for Human LXRα.
Receptor source: E. coli extract from cells expressing biotinylated hLXRα. Extract was made in a similar buffer as above, but with 50 mM TRIS.
Washed streptavidin and coated flash plates with wash buffer. Diluted receptor extract to give Bmax˜4000 cpm and add to the wells. Wrapped the plates in aluminum foil and stored them at +4° C. over night.
as §1
Aspirated wells, and wash the flashed plates. Sealed the plate. Measured the remaining radioactivity in the plate.

Row | Structure (SMILES) | pIC50 (human LXRβ) | pIC50 (human LXRα)
1 | Cc1nc2cccc(Cl)c2nc1-c1cccc(Oc2cccc(S(C)(=O)=O)c2)c1 [Example 10, 5-chloro-2-methyl-3-{3-[3-(methylsulfonyl)phenoxy]phenyl}quinoxaline] | 5.66 | < 6.00
2 | Cc1nc2c(Cl)cccc2nc1Oc1cccc(-c2cccc(S(C)(=O)=O)c2)c1 [Example 80, 5-chloro-3-methyl-2-{[3′-(methylsulfonyl)biphenyl-3-yl]oxy}quinoxaline] | 6.97 | 6.09
3 | Cc1nc2cccc(Cl)c2nc1-c1ccc(-c2cccc(S(C)(=O)=O)c2)cc1 [Example 68, 5-chloro-2-methyl-3-[3′-(methylsulfonyl)biphenyl-4-yl]quinoxaline] | 6.63 | < 6.00
4 | Cc1nc2cccc(C(F)(F)F)c2nc1-c1cc(Oc2cccc(S(=O)(=O)C(C)C)c2)ccc1Cl [Example 62, 3-(2-chloro-5-{3-[(1-methylethyl)sulfonyl]phenoxy}phenyl)-2-methyl-5-(trifluoromethyl)quinoxaline] | 7.42 | 6.06
5 | Cc1nc2cccc(C(F)(F)F)c2nc1-c1ccc(-c2cccc(S(C)(=O)=O)c2)cc1F [Example 6, 3-[3-fluoro-3′-(methylsulfonyl)biphenyl-4-yl]-2-methyl-5-(trifluoromethyl)quinoxaline] | 6.40 | < 6.00
6 | Cc1nc2c(C(F)(F)F)cccc2nc1-c1cc(Oc2cc(Cl)cc(S(C)(=O)=O)c2)ccc1Cl [Example 60, 2-{2-chloro-5-[3-chloro-5-(methylsulfonyl)phenoxy]phenyl}-3-methyl-5-(trifluoromethyl)-quinoxaline] | 6.80 | < 6.00
7 | O=S(=O)(CCCO)c1cccc(Oc2cccc(-c3cnc4cccc(C(F)(F)F)c4n3)c2)c1 [Example 11, 3-[(3-{3-[8-(trifluoromethyl)quinoxalin-2-yl]phenoxy}phenyl)sulfonyl]propan-1-ol] | 5.60 | < 6.00
8 | Cc1nc2c(C(F)(F)F)cccc2nc1-c1cc(Oc2cccc(S(=O)(=O)CCCO)c2)ccc1Cl [Example 58, 3-[(3-{4-chloro-3-[3-methyl-5-(trifluoromethyl)quinoxalin-2-yl]phenoxy}phenyl)sulfonyl]-propan-1-ol] | 7.20 | 6.09
9 | Cc1nc2c(C(F)(F)F)cccc2nc1-c1ccc(-c2cncc(S(C)(=O)=O)c2)cc1 [Example 74, 3-methyl-2-{4-[5-(methylsulfonyl)pyridin-3-yl]phenyl}-5-(trifluoromethyl)quinoxaline] | < 6.00 | < 6.00
10 | CCS(=O)(=O)c1cccc(-c2ccc(Oc3nc4cccc(Cl)c4nc3C)cc2)c1 [Example 83, 5-chloro-2-{[3′-(ethylsulfonyl)biphenyl-4-yl]oxy}-3-methylquinoxaline] | < 6.00 | < 6.00
11 | Cc1nc2c(C(F)(F)F)cccc2nc1-c1cc(Oc2ccc(S(C)(=O)=O)cc2)ccc1Cl [Example 42, 2-{2-chloro-5-[4-(methylsulfonyl)phenoxy]phenyl}-3-methyl-5-(trifluoromethyl)quinoxaline] | 6.13 | 5.72
12 | Cc1nc2c(Cl)cccc2nc1Oc1ccc(-c2cccc(S(C)(=O)=O)c2)cc1 [Example 82, 5-chloro-3-methyl-2-{[3′-(methylsulfonyl)biphenyl-4-yl]oxy}quinoxaline] | 5.99 | < 6.00
13 | Cc1nc2cccc(C(F)(F)F)c2nc1-c1cc(Oc2cccc(S(=O)(=O)CCCO)c2)ccc1Cl [Example 63, 3-[(3-{4-chloro-3-[3-methyl-8-(trifluoromethyl)quinoxalin-2-yl]phenoxy}phenyl)sulfonyl]-propan-1-ol] | 7.32 | 6.01
14 | Cc1nc2c(C#N)cccc2nc1-c1ccc(-c2cccc(S(C)(=O)=O)c2)cc1 [Example 71, 3-methyl-2-[3′-(methylsulfonyl)biphenyl-4-yl]quinoxaline-5-carbonitrile] |  | < 6.00
15 | CCS(=O)(=O)c1cccc(Oc2ccc(-c3nc4c(C(F)(F)F)cccc4nc3C)cc2)c1 [Example 15, 3-{4-[3-(ethylsulfonyl)phenoxy]phenyl}-2-methyl-5-(trifluoromethyl)quinoxaline] | < 6.00 | 
16 | CS(=O)(=O)c1cccc(-c2ccc(-c3nc4cccc(C(F)(F)F)c4nc3N)cc2)c1 [Example 33, 3-[3′-(methylsulfonyl)biphenyl-4-yl]-8-(trifluoromethyl)quinoxalin-2-amine] | 6.14 | 
17 | CS(=O)(=O)c1ccccc1-c1ccc(-c2cnc3cccc(C(F)(F)F)c3n2)cc1 [Example 24, 2-[2′-(methylsulfonyl)biphenyl-4-yl]-8-(trifluoromethyl)quinoxaline] | < 6.00 | 
18 | Cc1nc2c(Cl)cccc2nc1Oc1cccc(-c2cccc(NS(C)(=O)=O)c2)c1 [Example 90, N-{3′-[(5-chloro-3-methylquinoxalin-2-yl)oxy]biphenyl-3-yl}methanesulfonamide] | < 6.00 | 
19 | Cc1nc2c(C(F)(F)F)cccc2nc1-c1ccc(-c2ccccc2S(C)(=O)=O)cc1 [Example 21, 3-methyl-2-[2′-(methylsulfonyl)biphenyl-4-yl]-5-(trifluoromethyl)quinoxaline] | < 6.00 | 
20 | Cc1nc2cccc(C(F)(F)F)c2nc1-c1cc(Oc2ccc(S(=O)(=O)CC#N)cc2)ccc1Cl [Example 38, [(4-{4-chloro-3-[3-methyl-8-(trifluoromethyl)quinoxalin-2-yl]phenoxy}phenyl)sulfonyl]-acetonitrile] | < 6.00 | 
21 | COc1cccc2nc(-c3ccc(-c4cccc(S(C)(=O)=O)c4)cc3)c(C)nc12 [Example 70, 5-methoxy-3-methyl-2-[3′-(methylsulfonyl)biphenyl-4-yl]quinoxaline] |  | < 6.00
22 | Cc1nc2cccc(C(F)(F)F)c2nc1-c1ccc(-c2cccc(NS(C)(=O)=O)c2)cc1 [Example 47, N-{4′-[3-methyl-8-(trifluoromethyl)quinoxalin-2-yl]biphenyl-3-yl}methanesulfonamide] | < 6.00 | 
23 | CS(=O)(=O)c1cccc(Oc2cccc(-c3cnc4cccc(Cl)c4n3)c2)c1 [Example 13, 8-chloro-2-{3-[3-(methylsulfonyl)phenoxy]phenyl}quinoxaline] | < 6.00 | 
24 | Cc1nc2c(C(F)(F)F)cccc2nc1-c1cc(Oc2cccc(S(C)(=O)=O)c2)ccc1-c1ccccc1 [Example 40, 3-methyl-2-{4-[3-(methylsulfonyl)phenoxy]biphenyl-2-yl}-5-(trifluoromethyl)quinoxaline] | < 6.00 | 
25 | CNS(=O)(=O)c1cccc(-c2cccc(Oc3nc4cccc(Cl)c4nc3C)c2)c1 [Example 88, 3′-[(5-chloro-3-methylquinoxalin-2-yl)oxy]-N-methylbiphenyl-3-sulfonamide] | < 6.00 | 
26 | Cc1nc2c(C(F)(F)F)cccc2nc1-c1ccc(Oc2cccc(S(C)(=O)=O)c2)cc1F [Example 30, 2-{2-fluoro-4-[3-(methylsulfonyl)phenoxy]phenyl}-3-methyl-5-(trifluoromethyl)quinoxaline] | < 6.00 | 
27 | CS(=O)(=O)c1cccc(Oc2cccc(-c3cnc4c(C(F)(F)F)cccc4n3)c2)c1 [Example 14, 2-{3-[3-(methylsulfonyl)phenoxy]phenyl}-5-(trifluoromethyl)quinoxaline] | < 6.00 | 
28 | Cc1nc2c(Cl)cccc2nc1Oc1ccc(-c2cccc(S(N)(=O)=O)c2)cc1 [Example 92, 4′-[(5-chloro-3-methylquinoxalin-2-yl)oxy]biphenyl-3-sulfonamide] | 5.61 | 
29 | Cc1nc2c(C(F)(F)F)cccc2nc1-c1ccc(-c2cccc(C(N)=O)c2)cc1 [Example 50, 4′-[3-methyl-5-(trifluoromethyl)quinoxalin-2-yl]biphenyl-3-carboxamide] | < 6.00 | 
30 | CS(=O)(=O)c1cccc(-c2ccc(-c3cnc4c(C(F)(F)F)cccc4n3)cc2)c1 [Example 22, 2-[3′-(methylsulfonyl)biphenyl-4-yl]-5-(trifluoromethyl)quinoxaline] | < 6.00 | 
